According to ChEMBL document CHEMBL1201862, “PubChem BioAssay data set” (2004):
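In this assay, cells in 96-well plates receive the compound at five concentrations for 48 hours. Endpoints are linearly interpolated between the surrounding concentrations. GI50 = concentration required for 50% inhibition of growth.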 Activity calls are given as the source filed them. Rule as the data show it: active = GI50 up to about 1.1 µM and inactive = higher.

Key:
Assay in all cases: DTP human tumour cell line panel, 48 h
[1] = system: CAKI-1
[2] = system: COLO 205
[3] = system: HCT-116
[4] = system: HL-60
[5] = system: HOP-62
[6] = system: HOP-92
[7] = system: LOX IMVI
[8] = system: M14
[9] = system: MOLT-4
[10] = system: NCI-H460
[11] = system: OVCAR-5
[12] = system: RXF 393
[13] = system: SF-268
[14] = system: SF-539
[15] = system: SN12C
[16] = system: SR
[17] = system: U-251

Measured: GI50

CC(=O)c1ccc(-c2ccc(C(C)=O)s2)s1
inactive: [1] > 100 µM | [2] > 100 µM | [3] > 100 µM | [4] > 100 µM | [5] > 100 µM | [6] > 100 µM | [7] > 100 µM | [8] > 100 µM | [9] > 100 µM | [10] > 100 µM | [11] > 100 µM | [12] > 100 µM | [13] 1.87 µM | [14] > 100 µM | [15] > 100 µM | [16] > 100 µM | [17] > 100 µM

O=S(=O)(N/N=C/c1ccc(Cl)cc1Cl)c1ccccc1
inactive: [1] 59.4 µM | [2] 62.4 µM | [3] 49 µM | [4] 19.5 µM | [5] > 100 µM | [6] 34.8 µM | [7] 97.9 µM | [8] 81.1 µM | [9] 34.7 µM | [11] > 100 µM | [12] 77.1 µM | [13] 63.1 µM | [14] 77.1 µM | [15] 27.4 µM | [16] 57 µM | [17] 91.2 µM

Cc1ccc(S(=O)(=O)OC2CS[S+]([O-])CC2OS(=O)(=O)c2ccc(C)cc2)cc1 (stereo unspecified)
inactive: [1] 12.9 µM | [2] 11.8 µM | [3] 13.9 µM | [4] 6.01 µM | [5] 20.8 µM | [6] 13 µM | [7] 12.1 µM | [8] 14.3 µM | [9] 2.23 µM | [10] 22.3 µM | [11] 18.2 µM | [12] 8.22 µM | [13] 17 µM | [14] 15.2 µM | [15] 15.2 µM | [16] 1.83 µM | [17] 14.8 µM

Fc1ccc(C2SCc3nc4ccccc4n32)cc1Cl (stereo unspecified)
inactive: [1] 13 µM | [2] 15.3 µM | [4] 13.1 µM | [5] 15.5 µM | [6] 12 µM | [7] 17.9 µM | [9] 23.2 µM | [10] 29.2 µM | [11] 15.4 µM | [12] 19.4 µM | [13] 33.6 µM | [14] 18.7 µM | [15] 16.3 µM | [16] 27.2 µM | [17] 19.4 µM

CCCNCCCCC(NC(C)=O)C(=O)NCc1ccccc1 (stereo unspecified)
inactive: [1] > 100 µM | [2] > 100 µM | [3] > 100 µM | [5] > 100 µM | [6] > 100 µM | [7] > 100 µM | [8] > 100 µM | [9] > 100 µM | [10] > 100 µM | [11] > 100 µM | [12] > 100 µM | [13] > 100 µM | [14] > 100 µM | [15] > 100 µM | [17] > 100 µM

O=[N+]([O-])c1cccc(/C=N/C23CC4CC(CC(C4)C2)C3)c1
inactive: [1] > 100 µM | [2] > 100 µM | [3] > 100 µM | [4] 23.9 µM | [5] > 100 µM | [6] > 100 µM | [7] 63.7 µM | [8] > 100 µM | [9] 74.1 µM | [10] > 100 µM | [11] > 100 µM | [12] > 100 µM | [13] > 100 µM | [14] > 100 µM | [15] > 100 µM | [17] > 100 µM

CSC(C1c2ccccc2N(c2ccc(C)cc2)C2=NC(=O)N(C)C(=O)C21Cl)S(=O)(=O)c1ccc(C)cc1 (stereo unspecified)
inactive: [1] 19.8 µM | [2] 19.3 µM | [3] 13 µM | [4] 3.31 µM | [5] 20.7 µM | [6] 11 µM | [7] 20.5 µM | [8] 26.9 µM | [9] 6.08 µM | [10] 24 µM | [11] 35.3 µM | [13] 23.6 µM | [14] 17.5 µM | [15] 21.7 µM | [17] 19.3 µM

O=C(CC1(O)C(=O)Nc2c(Cl)ccc(Cl)c21)c1ccc(Cl)cc1 (stereo unspecified)
inactive: [1] 51.1 µM | [2] 18.6 µM | [3] 29.4 µM | [5] 32 µM | [6] 37.8 µM | [7] 18.5 µM | [8] 26.4 µM | [10] 23.4 µM | [11] 35.2 µM | [12] 21.9 µM | [13] 37 µM | [14] 24.8 µM | [15] 18.2 µM | [17] 29.2 µM

O=C(O)c1c2c(cc3c(=O)c4ccccc4[nH]c13)CCCC2
inactive: [2] > 100 µM | [3] 82 µM | [4] > 100 µM | [5] > 100 µM | [6] 59.7 µM | [7] 60.5 µM | [9] > 100 µM | [10] > 100 µM | [11] > 100 µM | [12] > 100 µM | [13] > 100 µM | [14] > 100 µM | [15] > 100 µM | [16] > 100 µM | [17] > 10 µM

Cc1nc2ccccc2[s+]c1-c1cnc(NC#N)nc1C(=O)Nc1cccc(Cl)c1
inactive: [1] > 100 µM | [2] > 100 µM | [3] > 100 µM | [5] > 100 µM | [7] > 100 µM | [8] > 100 µM | [9] > 100 µM | [10] > 100 µM | [11] > 100 µM | [12] > 100 µM | [13] > 100 µM | [14] > 100 µM | [15] > 100 µM | [16] > 100 µM | [17] > 100 µM

COC(=O)C1=C(O)c2cc(-c3ccccc3)c(-c3ccccc3)c(C#N)c2NC(=O)C1
inactive: [1] 7.03 µM | [2] 6.08 µM | [3] 1.92 µM | [4] 1.33 µM | [5] 20.4 µM | [8] 4.99 µM | [9] 2.46 µM | [10] 3.7 µM | [12] 1.7 µM | [14] 7.33 µM | [15] 47.9 µM | [16] 2.96 µM | [17] 7.69 µM

C=C(C(=C)P(=S)(C(C)C)C(C)C)P(=S)(C(C)C)C(C)C
inactive: [1] > 100 µM | [2] > 100 µM | [3] > 100 µM | [4] > 100 µM | [5] > 100 µM | [6] > 100 µM | [7] > 100 µM | [8] > 100 µM | [9] > 100 µM | [10] > 100 µM | [11] > 100 µM | [12] > 100 µM | [13] > 100 µM | [14] > 100 µM | [15] > 100 µM | [16] > 100 µM | [17] > 100 µM

O=C(N/C(=C\c1ccc(/C=C(\NC(=O)c2ccccc2)c2nc3ccccc3[nH]2)cc1)c1nc2ccccc2[nH]1)c1ccccc1
inactive: [1] > 100 µM | [2] > 100 µM | [3] > 100 µM | [5] > 100 µM | [6] > 100 µM | [7] > 100 µM | [8] 57.9 µM | [9] > 100 µM | [10] > 100 µM | [11] > 100 µM | [12] > 100 µM | [13] > 100 µM | [14] > 100 µM | [15] > 100 µM | [17] > 100 µM

O=C(/C=C/c1ccc(Cl)cc1)c1ccncc1
inactive: [1] 30.8 µM | [2] > 100 µM | [3] 62.2 µM | [4] 32 µM | [5] 98.9 µM | [6] > 100 µM | [7] 27.1 µM | [8] 36.1 µM | [9] 27 µM | [10] 59.7 µM | [11] > 100 µM | [12] 21.4 µM | [13] 85.9 µM | [14] 25.9 µM | [15] 51.4 µM | [16] 45.9 µM | [17] 44 µM

NC(=O)c1csc(C2C=CC(CO)O2)n1 (stereo unspecified)
inactive: [1] > 100 µM | [2] > 100 µM | [3] > 100 µM | [4] > 100 µM | [5] > 100 µM | [6] > 100 µM | [7] > 100 µM | [8] > 100 µM | [9] > 100 µM | [10] > 100 µM | [11] > 100 µM | [13] > 100 µM | [14] > 100 µM | [15] > 100 µM | [17] > 100 µM

COC1CC(n2cc(F)c(N)nc2=O)OC1CO (stereo unspecified)
inactive: [1] > 100 µM | [2] > 100 µM | [4] > 100 µM | [5] > 100 µM | [6] > 100 µM | [7] > 100 µM | [8] > 100 µM | [9] > 100 µM | [10] 94 µM | [11] > 100 µM | [12] > 100 µM | [13] > 100 µM | [15] > 100 µM | [17] > 100 µM

Nc1nc2c(c(=O)[n-]1)[n+](CCO)cn2C1OC(CO)C(O)C1O (stereo unspecified)
inactive: [1] > 100 µM | [2] > 100 µM | [3] > 100 µM | [4] > 100 µM | [5] > 100 µM | [6] > 100 µM | [7] > 100 µM | [8] > 100 µM | [10] > 100 µM | [11] > 100 µM | [12] > 100 µM | [13] > 100 µM | [14] > 100 µM | [15] > 100 µM | [16] > 100 µM | [17] > 100 µM

C/C(CC(=O)Nc1ccccc1)=N\NC(N)=S
inactive: [2] > 100 µM | [3] > 100 µM | [4] > 100 µM | [5] > 100 µM | [6] > 100 µM | [7] > 100 µM | [8] > 100 µM | [9] > 100 µM | [10] > 100 µM | [11] > 100 µM | [12] > 100 µM | [13] > 100 µM | [14] > 100 µM | [17] > 100 µM
